Here are results for 24 compounds from US8846949B2, “Pyrrolopyrazoles as N-type calcium channel blockers” (Janssen Pharmaceutica NV, priority 2012, dated 2014).

Structures are written as SMILES.

The target in this test is T1, N-type calcium channel α1B (Cav2.2), β3 and α2δ subunits (Homo sapiens, UniProt Q00975).
T1 construct: expressed in transfected cells
Description: Functional assay, antagonism of N-type calcium channel (FDSS calcium mobilization response to KCl depolarization). Type of test: cell-based. The conditions noted are these: for IC50: HEK stable cell line, 50 mM KCl depolarization, six-point concentration-response; for inhibition at 0.33 µM: 0.33 μM compound; for inhibition at 0.33 µM / inhibition at 1 µM: FDSS, 50 mM KCl; for inhibition at 1 µM: 1 μM compound. The procedure: A stable cell line (HEK parent) co-expressing the α1B (Cav2.2), β3 and α2δ subunits of the N-type calcium channel subunits was used. These cells were routinely grown as monolayers in low glucose-containing Dulbecco's Modified Eagle Medium supplemented with 10% FBS, 2 mM L-glutamine, 100 I.U./mL penicillin, 100 μg/mL streptomycin, 400 μg/mL G418 and 200 μg/mL Zeocin (split ratio=1:5). Cells were maintained in 5% CO2 at 37° C. Compounds of Formula (I) were prepared as 10 mM stocks in DMSO from neat compound, if available. Otherwise, the 5 or 10 mM DMSO stock solutions provided in-house were used.
Calcium mobilization responses to KCl depolarization were evaluated by measuring the intensity of calcium-mediated fluorescent signal in the presence of BD Calcium Assay Dye (BD Biosciences, Franklin Lakes, N.J., U.S.A.), utilizing a Functional Drug Screening System (FDSS) by Hamamatsu Corporation (Bridgewater, N.J. U.S.A.).
Twenty-four hr prior to assay, cells were seeded in clear-base poly-D-lysine-coated 384-well plates (BD Biosciences) at a density of 5,000 cells per well in culture medium and grown overnight in 5% CO2 at 37° C. On the day of assay, growth media were removed, and cells were loaded with BD calcium assay dye (BD Biosciences) for 35 min at 37° C. under 5% CO2 and then for 25 min at room temp. Utilizing the FDSS, cells were exposed to representative compounds of Formula (I) at varying concentrations, and intracellular calcium was measured for 5 min prior to the addition of 50 mM KCl for an additional 3 min of measurement.
IC50 values for representative compounds of Formula (I) were determined from six-point concentration-response experiments and represent the concentration of said compound required to inhibit 50% of the maximal response. Maximal fluorescence intensity (FI) achieved upon addition of 50 mM KCl was exported from the FDSS software and further analyzed using GraphPad Prism 3.02 (Graph Pad Software Inc., San Diego, Calif., U.S.A.). Data were normalized to the maximum average counts from quadruplicate wells for each condition in the presence of 50 mM KCl and to the minimum average counts in the presence of buffer. Theoretical curves were generated using nonlinear regression curve-fitting analysis of either sigmoidal concentration-response or sigmoidal concentration-response (variable slope), and the IC50 values with the best-fit curve determined by GraphPad Prism were reported.
(In general: A change in cytosolic calcium serves as a functional read-out for many receptors and channels.)

T1 sequence (Q00975 whole entry): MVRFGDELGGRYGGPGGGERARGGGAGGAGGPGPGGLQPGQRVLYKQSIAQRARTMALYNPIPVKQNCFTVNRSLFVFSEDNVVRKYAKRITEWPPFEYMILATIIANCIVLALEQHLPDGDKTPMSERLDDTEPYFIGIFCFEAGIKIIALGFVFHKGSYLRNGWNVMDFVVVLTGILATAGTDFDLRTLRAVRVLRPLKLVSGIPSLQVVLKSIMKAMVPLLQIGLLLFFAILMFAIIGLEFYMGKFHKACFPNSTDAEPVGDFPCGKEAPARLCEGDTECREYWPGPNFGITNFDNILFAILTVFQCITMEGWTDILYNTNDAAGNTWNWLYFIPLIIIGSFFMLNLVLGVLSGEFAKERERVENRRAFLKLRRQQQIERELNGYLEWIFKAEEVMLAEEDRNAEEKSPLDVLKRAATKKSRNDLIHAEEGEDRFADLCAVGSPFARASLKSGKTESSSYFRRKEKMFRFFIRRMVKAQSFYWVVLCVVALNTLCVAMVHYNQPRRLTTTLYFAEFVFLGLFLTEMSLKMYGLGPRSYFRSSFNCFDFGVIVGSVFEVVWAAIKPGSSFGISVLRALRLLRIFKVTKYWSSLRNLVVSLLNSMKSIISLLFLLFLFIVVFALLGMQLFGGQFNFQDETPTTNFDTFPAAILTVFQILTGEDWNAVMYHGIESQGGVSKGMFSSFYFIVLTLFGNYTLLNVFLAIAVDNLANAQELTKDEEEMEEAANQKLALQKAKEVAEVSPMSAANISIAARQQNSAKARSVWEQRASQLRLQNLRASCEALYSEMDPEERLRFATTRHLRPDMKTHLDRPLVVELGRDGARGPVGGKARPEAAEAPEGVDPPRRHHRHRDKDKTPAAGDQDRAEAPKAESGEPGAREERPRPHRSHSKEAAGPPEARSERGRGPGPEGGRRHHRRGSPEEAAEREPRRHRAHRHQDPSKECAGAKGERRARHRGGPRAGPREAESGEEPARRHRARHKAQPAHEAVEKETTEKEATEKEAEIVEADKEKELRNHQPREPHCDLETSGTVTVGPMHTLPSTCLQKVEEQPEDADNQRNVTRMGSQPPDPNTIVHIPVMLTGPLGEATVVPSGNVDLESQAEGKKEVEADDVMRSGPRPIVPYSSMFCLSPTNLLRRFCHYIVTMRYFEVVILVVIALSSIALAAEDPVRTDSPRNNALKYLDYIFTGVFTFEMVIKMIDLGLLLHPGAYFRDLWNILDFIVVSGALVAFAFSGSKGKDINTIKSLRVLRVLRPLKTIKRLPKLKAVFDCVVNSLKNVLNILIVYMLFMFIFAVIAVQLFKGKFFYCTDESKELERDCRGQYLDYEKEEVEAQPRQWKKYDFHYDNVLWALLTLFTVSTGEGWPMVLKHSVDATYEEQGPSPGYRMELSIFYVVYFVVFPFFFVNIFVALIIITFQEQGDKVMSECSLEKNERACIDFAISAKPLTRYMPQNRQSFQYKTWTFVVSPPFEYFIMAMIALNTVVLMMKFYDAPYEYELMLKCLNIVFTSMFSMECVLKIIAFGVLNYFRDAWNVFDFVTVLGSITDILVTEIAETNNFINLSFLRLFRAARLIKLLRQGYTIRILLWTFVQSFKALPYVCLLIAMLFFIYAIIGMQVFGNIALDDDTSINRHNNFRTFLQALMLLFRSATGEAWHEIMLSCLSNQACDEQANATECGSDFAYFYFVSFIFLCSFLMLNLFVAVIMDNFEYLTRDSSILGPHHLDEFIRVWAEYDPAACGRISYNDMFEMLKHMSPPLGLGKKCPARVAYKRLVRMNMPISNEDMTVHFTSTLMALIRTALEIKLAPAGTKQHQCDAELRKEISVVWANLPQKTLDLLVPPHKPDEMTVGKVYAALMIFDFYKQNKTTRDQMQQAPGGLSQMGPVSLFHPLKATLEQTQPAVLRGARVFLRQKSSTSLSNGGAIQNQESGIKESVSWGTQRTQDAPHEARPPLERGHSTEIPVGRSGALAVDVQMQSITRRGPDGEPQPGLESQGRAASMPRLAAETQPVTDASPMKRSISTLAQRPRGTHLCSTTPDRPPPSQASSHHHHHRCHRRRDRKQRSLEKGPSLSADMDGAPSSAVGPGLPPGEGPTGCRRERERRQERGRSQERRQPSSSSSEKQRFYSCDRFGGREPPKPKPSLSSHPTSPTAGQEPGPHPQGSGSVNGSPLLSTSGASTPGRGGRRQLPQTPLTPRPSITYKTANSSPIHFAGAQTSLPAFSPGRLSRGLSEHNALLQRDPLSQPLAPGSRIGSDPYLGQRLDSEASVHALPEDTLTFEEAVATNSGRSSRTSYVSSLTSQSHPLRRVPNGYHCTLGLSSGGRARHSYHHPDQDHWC
T1 sequence (P54284 whole entry partner): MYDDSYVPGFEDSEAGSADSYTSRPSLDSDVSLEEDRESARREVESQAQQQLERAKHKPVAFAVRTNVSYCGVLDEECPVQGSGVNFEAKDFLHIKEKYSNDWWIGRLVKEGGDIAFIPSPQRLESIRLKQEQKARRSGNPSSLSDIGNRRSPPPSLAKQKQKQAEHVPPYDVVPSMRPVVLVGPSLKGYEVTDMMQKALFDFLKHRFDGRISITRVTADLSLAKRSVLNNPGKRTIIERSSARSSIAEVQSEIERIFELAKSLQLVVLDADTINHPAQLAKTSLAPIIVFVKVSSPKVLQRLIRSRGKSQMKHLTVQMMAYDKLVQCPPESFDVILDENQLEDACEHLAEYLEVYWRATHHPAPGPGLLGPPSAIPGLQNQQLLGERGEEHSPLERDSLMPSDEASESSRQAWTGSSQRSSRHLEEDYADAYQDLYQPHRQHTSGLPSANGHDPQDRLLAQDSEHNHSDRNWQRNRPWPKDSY
T1 sequence (P54289 25-956 partner limits assumed): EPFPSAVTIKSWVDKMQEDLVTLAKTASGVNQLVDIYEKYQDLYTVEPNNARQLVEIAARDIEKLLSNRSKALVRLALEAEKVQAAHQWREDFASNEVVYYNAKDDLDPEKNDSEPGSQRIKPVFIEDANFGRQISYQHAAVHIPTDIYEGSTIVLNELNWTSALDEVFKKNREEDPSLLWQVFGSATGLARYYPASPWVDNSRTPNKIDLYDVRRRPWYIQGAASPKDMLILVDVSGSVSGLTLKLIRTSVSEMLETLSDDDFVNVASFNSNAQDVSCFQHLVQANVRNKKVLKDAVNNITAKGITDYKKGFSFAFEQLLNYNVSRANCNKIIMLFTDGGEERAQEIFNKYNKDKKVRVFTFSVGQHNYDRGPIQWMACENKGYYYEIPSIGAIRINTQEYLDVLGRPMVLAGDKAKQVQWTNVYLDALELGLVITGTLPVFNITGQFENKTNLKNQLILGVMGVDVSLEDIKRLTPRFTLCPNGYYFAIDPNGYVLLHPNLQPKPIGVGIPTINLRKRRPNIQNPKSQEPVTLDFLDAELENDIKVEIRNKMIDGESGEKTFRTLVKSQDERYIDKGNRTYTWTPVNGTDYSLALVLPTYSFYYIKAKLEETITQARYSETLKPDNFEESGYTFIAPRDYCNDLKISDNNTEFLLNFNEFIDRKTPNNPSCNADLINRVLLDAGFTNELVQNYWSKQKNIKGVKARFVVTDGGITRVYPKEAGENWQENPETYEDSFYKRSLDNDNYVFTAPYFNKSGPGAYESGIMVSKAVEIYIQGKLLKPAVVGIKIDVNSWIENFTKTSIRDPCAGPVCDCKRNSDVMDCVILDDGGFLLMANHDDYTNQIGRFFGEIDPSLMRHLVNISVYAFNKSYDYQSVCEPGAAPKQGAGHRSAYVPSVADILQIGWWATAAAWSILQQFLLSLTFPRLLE
T1 sequence (P54289 957-1103 partner limits assumed): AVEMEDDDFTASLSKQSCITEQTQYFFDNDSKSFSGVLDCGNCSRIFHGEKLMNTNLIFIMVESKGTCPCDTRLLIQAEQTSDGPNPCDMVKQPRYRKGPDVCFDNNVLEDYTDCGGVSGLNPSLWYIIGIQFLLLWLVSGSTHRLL

For `CCc1ccccc1-n1nc2c(c1-c1ccc(Cl)cc1)CN(S(=O)(=O)C(F)(F)F)C2` [Cpd 3, 3-(4-Chlorophenyl)-2-(2-ethylphenyl)-5-[(trifluoromethyl)sulfonyl]-2,4,5,6-tetrahydropyrrolo[3,4-c]pyrazole], the IC50 – broadly, the concentration at which inhibition is half-maximal – came out at 150 nM. On the same count and under the same terms, the result for `O=C(N1Cc2nn(-c3ccccc3OC(F)(F)F)c(-c3ccc(Cl)cc3)c2C1)C(F)(F)F` [Cpd 21, 3-(4-Chlorophenyl)-5-(trifluoroacetyl)-2-[2-(trifluoromethoxy)phenyl]-2,4,5,6-tetrahydropyrrolo[3,4-c]pyrazole] reads 300 nM; that for `COc1ccccc1-n1nc2c(c1-c1ccc(Cl)cc1)CN(C(=O)N(C)C)C2` [Cpd 34, 3-(4-Chlorophenyl)-2-(2-methoxyphenyl)-N,N-dimethyl-2,6-dihydropyrrolo[3,4-c]pyrazole-5(4H)-carboxamide], 170 nM. Turning to `COc1cc(F)ccc1-n1nc2c(c1-c1ccc(Cl)cc1)CN(S(=O)(=O)C1CCCCC1)C2` [Cpd 72, 3-(4-Chlorophenyl)-5-(cyclohexylsulfonyl)-2-(4-fluoro-2-methoxyphenyl)-2,4,5,6-tetrahydropyrrolo[3,4-c]pyrazole], the inhibition (commonly the share of the control response that was lost under treatment) at 0.33 µM came to 82% and the IC50 was found to be 95 nM. The matching figures for `COc1ccc(-n2nc3c(c2-c2ccc(Cl)cc2)CN(S(=O)(=O)N(C)C)C3)c(C)c1` [Cpd 69, 3-(4-Chlorophenyl)-2-(4-methoxy-2-methylphenyl)-N,N-dimethyl-2,6-dihydropyrrolo[3,4-c]pyrazole-5(4H)-sulfonamide]: 69% and 130 nM. Take `CCc1ccccc1-n1nc2c(c1-c1ccc(Cl)cc1)CN(C(=O)COC)C2` [Cpd 10, 3-(4-Chlorophenyl)-2-(2-ethylphenyl)-5-(methoxyacetyl)-2,4,5,6-tetrahydropyrrolo[3,4-c]pyrazole]: the IC50 stood at 280 nM. For `COc1cc(C)ccc1-n1nc2c(c1-c1ccc(Cl)cc1)CN(S(=O)(=O)N1CCC(C)CC1)C2` [Cpd 77, 3-(4-Chlorophenyl)-2-(2-methoxy-4-methylphenyl)-5-[(4-methylpiperidin-1-yl)sulfonyl]-2,4,5,6-tetrahydropyrrolo[3,4-c]pyrazole], the inhibition at 0.33 µM is 82% and the IC50 was 56 nM.

`O=S(=O)(NCCN1CCOCC1)c1ccc(N2Cc3nn(-c4ccccc4OC(F)(F)F)c(-c4ccc(Cl)cc4)c3C2)cc1` [Cpd 26, 4-[3-(4-Chlorophenyl)-2-[2-(trifluoromethoxy)phenyl]-2,6-dihydropyrrolo[3,4-c]pyrazol-5(4H)-yl]-N-(2-morpholin-4-ylethyl)benzenesulfonamide]: the inhibition at 1 µM turned out to be 57%. On to `CC(C)S(=O)(=O)N1Cc2nn(-c3ccccc3C(F)(F)F)c(-c3ccc(Cl)cc3)c2C1` [Cpd 16, 3-(4-Chlorophenyl)-5-[(1-methylethyl)sulfonyl]-2-[2-(trifluoromethyl)phenyl]-2,4,5,6-tetrahydropyrrolo[3,4-c]pyrazole], for which the IC50 is 160 nM. With `COc1ccc(-n2nc3c(c2-c2ccc(Cl)cc2)CN(S(=O)(=O)C(C)C)C3)c(F)c1` [Cpd 79, 3-(4-Chlorophenyl)-2-(2-fluoro-4-methoxyphenyl)-5-[(1-methylethyl)sulfonyl]-2,4,5,6-tetrahydropyrrolo[3,4-c]pyrazole], the inhibition at 0.33 µM turned out to be 61% and the IC50 came out at 180 nM. On to `N#Cc1cccc(N2Cc3nn(-c4ccccc4OC(F)(F)F)c(-c4ccc(Cl)cc4)c3C2)c1` [Cpd 23, 3-[3-(4-Chlorophenyl)-2-[2-(trifluoromethoxy)phenyl]-2,6-dihydropyrrolo[3,4-c]pyrazol-5(4H)-yl]benzonitrile], for which the inhibition at 1 µM amounted to 52%. `COc1ccccc1-n1nc2c(c1-c1ccc(C)nc1)CN(S(=O)(=O)C(C)C)C2` [Cpd 94, 2-(2-Methoxyphenyl)-5-[(1-methylethyl)sulfonyl]-3-(6-methylpyridin-3-yl)-2,4,5,6-tetrahydropyrrolo[3,4-c]pyrazole]: the inhibition at 0.33 µM turned out to be 46%.

For the compound `CCc1ccccc1-n1nc2c(c1-c1ccc(Cl)cc1)CN(C(=O)c1ccco1)C2` [Cpd 8, 3-(4-Chlorophenyl)-2-(2-ethylphenyl)-5-(furan-2-ylcarbonyl)-2,4,5,6-tetrahydropyrrolo[3,4-c]pyrazole], the IC50 stood at 600 nM. In the case of `COc1cc(C)ccc1-n1nc2c(c1-c1ccc(Cl)cc1)CN(S(=O)(=O)C(C)C)C2` [Cpd 75, 3-(4-Chlorophenyl)-2-(2-methoxy-4-methylphenyl)-5-[(1-methylethyl)sulfonyl]-2,4,5,6-tetrahydropyrrolo[3,4-c]pyrazole], the inhibition at 0.33 µM stood at 93% and the IC50 amounted to 32 nM.

For the compound `COc1ccc(-n2nc3c(c2-c2ccc(Cl)cc2)CN(S(=O)(=O)C2CCCCC2)C3)c(C)c1` [Cpd 68, 3-(4-Chlorophenyl)-5-(cyclohexylsulfonyl)-2-(4-methoxy-2-methylphenyl)-2,4,5,6-tetrahydropyrrolo[3,4-c]pyrazole], the inhibition at 0.33 µM was 71% and the concentration for half-maximal inhibition (IC50) was determined as 130 nM.

Turning to `COc1cc(C)ccc1-n1nc2c(c1-c1ccc(Cl)cc1)CN(S(C)(=O)=O)C2` [Cpd 74, 3-(4-Chlorophenyl)-2-(2-methoxy-4-methylphenyl)-5-(methylsulfonyl)-2,4,5,6-tetrahydropyrrolo[3,4-c]pyrazole], the inhibition at 0.33 µM was determined as 82% and the IC50 was determined as 47 nM. As for `COc1ccc(-n2nc3c(c2-c2ccc(Cl)cc2)CN(S(C)(=O)=O)C3)c(C)c1` [Cpd 66, 3-(4-Chlorophenyl)-2-(4-methoxy-2-methylphenyl)-5-(methylsulfonyl)-2,4,5,6-tetrahydropyrrolo[3,4-c]pyrazole], the inhibition at 0.33 µM was determined as 35%.

For the compound `CC(C)(C)OC(=O)N1Cc2nn(-c3ccccc3OC(F)(F)F)c(-c3ccc(Cl)cc3)c2C1` [Cpd 19, tert-Butyl 3-(4-chlorophenyl)-2-[2-(trifluoromethoxy)phenyl]-2,6-dihydropyrrolo[3,4-c]pyrazole-5(4H)-carboxylate], the IC50 was determined as 300 nM.

Consider `N#Cc1ccc(N2Cc3nn(-c4ccccc4OC(F)(F)F)c(-c4ccc(Cl)cc4)c3C2)cc1` [Cpd 25, 4-[3-(4-Chlorophenyl)-2-[2-(trifluoromethoxy)phenyl]-2,6-dihydropyrrolo[3,4-c]pyrazol-5(4H)-yl]benzonitrile], for which the inhibition at 1 µM amounted to 57%. Take `COc1ccccc1-n1nc2c(c1-c1ccc(OC(C)C)nc1)CN(S(=O)(=O)C(C)C)C2` [Cpd 96, 2-(2-Methoxyphenyl)-3-[6-(1-methylethoxy)pyridin-3-yl]-5-[(1-methylethyl)sulfonyl]-2,4,5,6-tetrahydropyrrolo[3,4-c]pyrazole]: the inhibition at 0.33 µM stood at 79% and the IC50 came out at 130 nM.

In the case of `CCc1ccccc1-n1nc2c(c1-c1ccc(Cl)cc1)CN(C(=O)CNS(=O)(=O)C(F)(F)F)C2` [Cpd 13, N-{2-[3-(4-Chlorophenyl)-2-(2-ethylphenyl)-2,6-dihydropyrrolo[3,4-c]pyrazol-5(4H)-yl]-2-oxoethyl}-1,1,1-trifluoromethanesulfonamide], the inhibition at 1 µM was determined as 59%. For the compound `CS(=O)(=O)N1Cc2nn(-c3ccccc3C(F)(F)F)c(-c3ccc(Cl)cc3)c2C1` [Cpd 15, 3-(4-Chlorophenyl)-5-(methylsulfonyl)-2-[2-(trifluoromethyl)phenyl]-2,4,5,6-tetrahydropyrrolo[3,4-c]pyrazole], the IC50 is 280 nM. Consider `COC(=O)c1ccc(N2Cc3nn(-c4ccccc4OC(F)(F)F)c(-c4ccc(Cl)cc4)c3C2)cc1` [Cpd 24, Methyl 4-[3-(4-chlorophenyl)-2-[2-(trifluoromethoxy)phenyl]-2,6-dihydropyrrolo[3,4-c]pyrazol-5(4H)-yl]benzoate], for which the inhibition at 1 µM amounted to 64%. On to `CCc1ccccc1-n1nc2c(c1-c1ccc(Cl)cc1)CN(C(=O)CNS(C)(=O)=O)C2` [Cpd 12, N-{2-[3-(4-Chlorophenyl)-2-(2-ethylphenyl)-2,6-dihydropyrrolo[3,4-c]pyrazol-5(4H)-yl]-2-oxoethyl}methanesulfonamide], for which the IC50 was determined as 520 nM.
